Results published in paper PMC6642015 (Cell chemical biology, 2019).
Where a chain is given by its changes, count along the chain named.

Key:
Experiment in all cases: isothermal titration calorimetry
Format in all cases: binding
human CblA (MMAA) [1] = molecular target: T1, human CblA (MMAA) (Homo sapiens, UniProt Q8IVH4, K276E); settings: pH 7.5, 150 mM KCl, 2 mM MgCl2, 20 °C; one-site model
T1 sequence (Q8IVH4 66-418 K276E limits assumed): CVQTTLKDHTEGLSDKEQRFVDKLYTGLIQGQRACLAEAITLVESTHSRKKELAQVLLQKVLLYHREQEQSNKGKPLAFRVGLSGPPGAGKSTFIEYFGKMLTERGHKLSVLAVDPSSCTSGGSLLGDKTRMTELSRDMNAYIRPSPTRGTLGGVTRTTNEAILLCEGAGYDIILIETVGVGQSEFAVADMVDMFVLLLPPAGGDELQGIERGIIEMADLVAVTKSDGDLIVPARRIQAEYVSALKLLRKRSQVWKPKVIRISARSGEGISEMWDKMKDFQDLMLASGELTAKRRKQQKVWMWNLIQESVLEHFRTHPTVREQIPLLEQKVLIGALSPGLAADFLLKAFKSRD

human CblA (MMAA) [2] = molecular target: T2, human CblA (MMAA) (Homo sapiens, UniProt Q8IVH4, K276A); settings: pH 7.5, 150 mM KCl, 2 mM MgCl2, 20 °C; one-site model
T2 sequence (Q8IVH4 66-418 K276A limits assumed): T1 sequence (Q8IVH4 66-418 K276E limits assumed) with E211A

human CblA (MMAA) [3] = molecular target: T3, human CblA (MMAA) (Homo sapiens, UniProt Q8IVH4)
T3 sequence (Q8IVH4 66-418 limits assumed): T1 sequence (Q8IVH4 66-418 K276E limits assumed) with E211K

human CblA (MMAA) [4] = molecular target: T4, human CblA (MMAA) (Homo sapiens, UniProt Q8IVH4, Q273A); settings: pH 7.5, 150 mM KCl, 2 mM MgCl2, 20 °C; one-site model
T4 sequence (Q8IVH4 66-418 Q273A limits assumed): T1 sequence (Q8IVH4 66-418 K276E limits assumed) with Q208A, E211K

human CblA (MMAA) [5] = molecular target: T5, human CblA (MMAA) (Homo sapiens, UniProt Q8IVH4, G278D); settings: pH 7.5, 150 mM KCl, 2 mM MgCl2, 20 °C; one-site model
T5 sequence (Q8IVH4 66-418 G278D limits assumed): T1 sequence (Q8IVH4 66-418 K276E limits assumed) with E211K, G213D

human CblA (MMAA) [6] = molecular target: T6, human CblA (MMAA) (Homo sapiens, UniProt Q8IVH4, G274S); settings: pH 7.5, 150 mM KCl, 2 mM MgCl2, 20 °C; one-site model
T6 sequence (Q8IVH4 66-418 G274S limits assumed): T1 sequence (Q8IVH4 66-418 K276E limits assumed) with G209S, E211K

Kd (human CblA (MMAA) [3]): 1100 ± 300 nM
Compound: Nc1nc2c(ncn2[C@@H]2O[C@H](COP(=O)(O)OP(=O)(O)O)[C@@H](O)[C@H]2O)c(=O)[nH]1 [GDP]
KD (human CblA (MMAA) [1]): largely unaffected by switch III mutations (Table S1)
KD (human CblA (MMAA) [2]): largely unaffected by switch III mutations (Table S1)
KD (human CblA (MMAA) [4]): largely unaffected by switch III mutations (Table S1)
KD (human CblA (MMAA) [5]): largely unaffected by switch III mutations (Table S1)
KD (human CblA (MMAA) [6]): largely unaffected by switch III mutations (Table S1)
